# Like-named read-outs stand apart in the source and are kept apart here.
# How the values were obtained:
# [1] = test system: IL-1 secretion, THP-1 cells; test: LPS-stimulated IL-1 secretion by THP-1 cells, IL-1 ELISA of supernatant; type: cell-based, human; conditions: IL-1 in supernatant, THP-1 cells pre-treated 4 hours, LPS 100 nanograms/ml 16 hours; for EC50: Homo sapiens, read-out: EC 50 in ug/ml (50% Effective Dose in vitro)
# Method: For this evaluation, white blood cells were dosed with varying concentrations of the ingredients. An inflammatory stimulus, lipopolysaccharide (LPS), was then added to the ingredient-plus-cell culture, as well as untreated control samples of white blood cells. The production of the IL-1 cytokine of both the ingredient-treated cells and the untreated cells was compared to extrapolate the concentration of the ingredient that causes a 50% change in the concentration of IL-1 produced by the cells.
# To perform the evaluation of inhibiting interleukin synthesis of this example, human white blood cells, specifically THP-1 cells obtained from ATCC of Manassas, Va., were grown under conditions recommended by ATCC in a humidified 37° C. incubator, which was supplied with 5% carbon dioxide. To test the IL-1 inhibitory potential of various compounds, multiple groups of THP-1 cells were plated in 96 well plates. […] With these cell samples plated, they were then dosed.
# In dosing, each of the ingredients was administered to the plated THP-1 cells in varying doses, specifically, 100 ug/ml, 10 ug/ml, 1 ug/ml and 0 ug/ml. […] The THP-1 cells, now dosed with the desired ingredients, were returned to the incubator and incubated for 4 hours under the same conditions.
# Thereafter, a known inflammatory stimulator, lipopolysaccharide (LPS) was added to each well plate to a final concentration of 100 nanograms/ml. The LPS treated cultures were returned to the incubator for an additional 16 hours. […]
# Thereafter, the liquids from each of the wells were removed and the coated plate was washed 3 times in a wash buffer. […] The reaction of the substrate solution (TMB) and the horseradish peroxidase conjugated to the anti-IL-1 antibody produces a colored product with specific spectral absorbance at wavelength of 450 nm.
# The calibration standard samples were subjected to the same protocol as the supernatant samples to determine the IL-1 present in those calibration samples. […] The optical density of the standard calibration samples were then plotted to determine a standardized IL-1 absorbance calibration curve.
# [2] = test system: IL-1/IL-6 Stimulated CRP Secretion, hepatocytes; test: IL-1/IL-6 stimulated CRP secretion by primary hepatocytes, CRP ELISA of supernatant; type: cell-based; conditions: Homo sapiens, Hepatocyte
# Method: Hepatocytes' response to IL-1 expression levels was evaluated by measuring CRP in the culture supernatant after exposure of the hepatocytes to IL-1 and IL-6 with or without pre-treatment with varying doses of the other ingredients.
# The IL-1 response effects were evaluated in hepatocytes by measuring the secretion of CRP when the hepatocytes were exposed to IL-1α and IL-6 with or without pre-treatment with varying doses of the other ingredients. […] Thus, by measuring CRP secreted by the hepatocytes, the degree of cells' response to IL-1 and/or IL-6 is able to be determined.
# To perform the evaluation of this example, human primarily isolated hepatocyte cells, obtained from In vitro Technology of Baltimore, Md., were restored under the conditions recommended by In vitro Technology in a humidified 37° C. incubator, which was supplied with 5% carbon dioxide. To test the CRP response potential of various compounds, multiple groups of hepatocytes were plated in 96 well plates. Specifically, 1×10^4 cells were plated in hepatocyte media supplement with 10% fetal bovine serum which were then exposed with varying doses, specifically, 100 ug/ml, 10 ug/ml, 1 ug/ml and 0 ug/ml of test ingredients. […]
# [3] = test system: IL-1 secretion, THP-1 cells; test: Synergy or interference of other ingredients with optional primary ingredients in inhibiting LPS-stimulated IL-1 secretion; type: cell-based, human; set-up: key: a “+” indicates interference or synergy, respectively as shown; a “−” indicates no interference or no synergy
# Method: Specifically, the release of IL-1 from the THP-1 cells after exposure to lipopolysaccharide (LPS) with or without pre-treatment in varying doses of the other ingredients, or a combination of those other ingredients with optional primary ingredients, was measured to evaluate the effects of the other ingredients on monocyte IL-1α secretion.
# The other ingredients tested were: blackberry extract, blueberry extract, cranberry extract, rosemary extract, clove extract and resveratrol.
# In Table IV, a “−” indicates no interference or no synergy, and a “+” indicates interference or synergy, respectively as shown.
structure (smiles),measurement,setting,value
O=C(O[C@@H]1Cc2c(O)cc(O)cc2O[C@@H]1c1cc(O)c(O)c(O)c1)c1cc(O)c(O)c(O)c1 [Epigallocatechin gallate],EC 50 in ug/ml (50% Effective Dose in vitro),[1],<1 µg/mL
COc1cc(/C=C/C(=O)O)ccc1O [Ferulic acid],EC50,[1],10 µg/mL
"CC(C)Oc1ccc2c(=O)c(-c3ccccc3)coc2c1 [Ipriflavone, reference compound]",EC50,[1],< 1 µg/mL
Oc1ccc(C=Cc2cc(O)cc(O)c2)cc1 [Resveratrol],EC50,"[2]; IL-1/IL-6 stimulated CRP secretion, hepatocytes, Example 2, read-out: CRP EC 50 in ug/ml (50% Effective Dose in vitro)",1 to 10 µg/mL
same,EC50,"[2]; hepatocytes activated via IL-1 and IL-6 (1 ng/ml each), read-out: EC50 of CRP secretion inhibition",1 to 10 µg/mL
same,Interference +/−,[3]; with Artichoke,−
same,Synergy +/−,[3]; with Artichoke,−
same,Interference +/−,[3]; with Nettle Root,−
same,Synergy +/−,[3]; with Nettle Root,−
same,Interference +/−,[3]; with Olive Extract,−
same,Synergy +/−,[3]; with Olive Extract,−
same,Interference +/−,[3]; with Rosehips,−
same,Synergy +/−,[3]; with Rosehips,−
